Experimental data published in patent US10456414B2, “Methods for treating HCV” (priority 2011, dated 2019).
Several values for one entry are separate records, joined by “and”; a condition that tells them apart may be missing. Equal entries are not always repeated. Where two headings read alike, the source gives them in different places.

Columns and labels:
[1] = tested on: HCV genotype 1a replicon; assay: HCV genotype 1a replicon assay, EC50 (Biological Example 8); conditions: Hepatitis C virus, 72 h
[2] = tested on: HCV genotype 1a replicon; assay: Antiviral combination studies with Compound 4, MacSynergy II; conditions: for Antagonism Volume / Synergy Volume: in combination with Compound 4, mean ± standard deviation
[3] = tested on: Genotype 1a replicon, NS5A Y93C
[4] = tested on: GT2b NS5B S282T mutant chimeric replicon; assay: microbe, parasite or virus in culture; format: cell-based, HCV; conditions: for Fold change: GT2b, S282T EC50 versus corresponding wild type; for EC50: Hepatitis C virus, GT2B, 72 h, read-out: EC50 S282T
[5] = tested on: GT2b wild-type chimeric replicon (2b NS5B in GT1b backbone); assay: microbe, parasite or virus in culture; format: cell-based, HCV; conditions: Hepatitis C virus, 72 h, read-out: EC50 WT
[6] = tested on: Huh-7 cells carrying an HCV genotype 1a replicon; conditions: with 320 nM Compound 10 and the highest concentration of the listed compound
[7] = HCV genotype 1a replicon assay, CC50 by calcein AM (Biological Example 8); conditions: human, Huh-7 cells carrying an HCV genotype 1a replicon
[8] = tested on: GT1b wild-type replicon; assay: microbe, parasite or virus in culture; format: cell-based, HCV; conditions: Hepatitis C virus, 72 h, 3 days
[9] = tested on: genotype 1b replicon RNA; assay: Replicon RNA suppression, 6 day assay, QRT-PCR; conditions: for Compound concentration able to induce replicon RNA 1-1.5 log drop in a 6 day assay: genotype 1b replicon cells
[10] = tested on: GT2a NS5B S282T mutant replicon; assay: microbe, parasite or virus in culture; format: cell-based, HCV; conditions: for Fold change: GT2a, S282T EC50 versus corresponding wild type; for EC50: Hepatitis C virus, GT2A, 72 h, read-out: EC50 S282T
[11] = tested on: GT3a NS5B S282T mutant chimeric replicon; assay: microbe, parasite or virus in culture; format: cell-based, HCV; conditions: for Fold change: GT3a, S282T EC50 versus corresponding wild type; for EC50: Hepatitis C virus, GT3A, 72 h, read-out: EC50 S282T
[12] = tested on: GT4a NS5B S282T mutant chimeric replicon; assay: microbe, parasite or virus in culture; format: cell-based, HCV; conditions: for Fold change: GT4a, S282T EC50 versus corresponding wild type; for EC50: Hepatitis C virus, GT4A, 72 h, read-out: EC50 S282T
[13] = tested on: Genotype 1a replicon, NS5A L31M
[14] = tested on: Huh-7 cells carrying a HCV genotype 1a replicon; assay: Cytotoxicity combination studies with Compound 4, MacSynergy II; conditions: for Interaction (cytotoxicity): in combination with Compound 4; for Antagonism Volume (cytotoxicity) / Synergy Volume (cytotoxicity): in combination with Compound 4, mean ± standard deviation
[15] = tested on: Genotype 1a replicon, NS5A Y93H
[16] = tested on: Genotype 1a replicon, NS5A Q30H
[17] = tested on: Genotype 1a replicon, NS5A Q30E
[18] = tested on: GT2a wild-type replicon; assay: microbe, parasite or virus in culture; format: cell-based, HCV; conditions: Hepatitis C virus, 72 h, 3 days
[19] = tested on: Genotype 1 b replicon cells; assay: Compound combination replicon cure assay, colony formation; conditions: 6 days treatment at the same concentrations, then G418 for 14 days
[20] = tested on: GT3a wild-type chimeric replicon (3a NS5B in GT1b backbone); assay: microbe, parasite or virus in culture; format: cell-based, HCV; conditions: Hepatitis C virus, 72 h, read-out: EC50 WT
[21] = tested on: 1b Huh-luc replicon cells; assay: Antiviral combination studies with Compound 5, MacSynergy II; format: cell-based, HCV; conditions: for Antagonism Volume / Synergy Volume: in combination with Compound 5, mean ± standard deviation
Method: Combination data were analyzed based on the Bliss Independence model using MacSynergy II software. Results of the combination assays were expressed as mean synergy and antagonism volumes (nM^2) calculated at 95% confidence from two independent experiments performed in triplicate.

[22] = tested on: HCV genotype 1a replicon; assay: HCV genotype 1a replicon assay, EC50 (Biological Example 3); format: cell-based; conditions: Hepatitis C virus, 72 h, 3 days, average ± standard deviation, read-out: EC50
[23] = Drug-drug interactions of co-administered compounds (exposure); format: in vivo; conditions: co-administered with Compound 2
Method: With respect to Compounds 9 and 10, or pharmaceutically acceptable salts thereof, the composition may comprise 10 mg to 1000 mg per day (according to US 2010/0298257). With respect to Compound 11, or pharmaceutically acceptable salts thereof, the composition may comprise 1 mg to 1000 mg per day (according to US 2010/0081628).

[24] = tested on: Huh-7 cells carrying a HCV genotype 1a replicon; assay: HCV genotype 1a replicon assay, CC50 by calcein AM (Biological Example 3); format: cell-based; conditions: genotype 1a replicon cells, 3 days, read-out: CC50
Method: (§1) The CC50 assay was performed first.

[25] = tested on: GT1b NS5B S282T mutant replicon; assay: microbe, parasite or virus in culture; format: cell-based, HCV; conditions: for Fold change: GT1b, S282T EC50 versus corresponding wild type; for EC50: Hepatitis C virus, GT1B, 72 h, read-out: EC50 S282T
[26] = tested on: Genotype 1a replicon, NS5A M28T
[27] = tested on: Genotype 1a replicon, NS5A Q30R
[28] = tested on: GT4a wild-type chimeric replicon (4a NS5B in GT1b backbone); assay: microbe, parasite or virus in culture; format: cell-based, HCV; conditions: Hepatitis C virus, 72 h, read-out: EC50 WT
[29] = tested on: NS5B S282T mutant replicons; assay: microbe, parasite or virus in culture; format: cell-based, HCV; conditions: Hepatitis C virus, read-out: EC50 values for S282T across all five genotypes
[30] = tested on: panel of NS5A mutant replicons; assay: Transient replicon assay, panel of NS5A mutant replicons; format: cell-based, HCV; conditions: seven NS5A mutants, genotype 1a
Excerpt: NS5A mutant replicons were created by synthesizing a sequence encoding the first 149 amino acids of NS5A containing the desired mutation flanked by a 5′ and 3′ BsrGI and EcoRI site, respectively (Genscript, Piscataway, N.J.). Synthesized fragments were then cloned by standard molecular biology techniques into a 1a Rluc replicon plasmid modified to enable cloning into unique BsrGI and EcoRI restriction sites. Mutations were confirmed by DNA sequencing.
RNA was transfected into Huh-lunet cells using the method of Lohmann et al. (Lohmann et al., Science 1999; 285 (5424):110-3) Briefly, cells were trypsinized and washed twice with PBS. A suspension of 4×10^6 cells in 400 μL of PBS were mixed with 5 μg of RNA and subjected to electroporation using settings of 960 μF and 270 V. Cells were transferred into 40 mL of pre-warmed culture medium and then seeded into 96-well or 384-well plates. Compounds were 3-fold serially diluted in 100% DMSO and added to cells to achieve a final DMSO concentration of 0.5%. Cells were treated for three days after which culture media were removed, cells were lysed, and Renilla luciferase activity was quantified using commercially available reagents (Promega) and a Victor or Envision instrument (Perkin Elmer, Waltham, Mass.).
Resistance fold changes were calculated as the ratio of mutant to wild-type replicon EC50. […]

[31] = tested on: HCV genotype 1a replicon; assay: Antiviral combination studies with Compound 10, MacSynergy II; conditions: in combination with Compound 10
[32] = HCV genotype 1a replicon assay, CC50 by calcein AM (Biological Example 3); format: cell-based; conditions: human, Huh-7 cells carrying a HCV genotype 1a replicon, genotype 1a replicon cells
Method: as §1

[33] = tested on: HCV 1b replicon system (Huh-luc); assay: Antiviral combination studies with Compound 6, MacSynergy II
[34] = single compound at the listed concentration, 6 days, relative to DMSO control (Table XIV)
[35] = in combination with Compound 6, mean ± standard deviation

COC(=O)N[C@H](C(=O)N1CC2(CC2)C[C@H]1c1ncc(-c2ccc3c(c2)C(F)(F)c2cc(-c4ccc5nc([C@@H]6[C@H]7CC[C@H](C7)N6C(=O)[C@@H](NC(=O)OC)C(C)C)[nH]c5c4)ccc2-3)[nH]1)C(C)C [Compound 6, (1-{3-[6-(9,9-Difluoro-7-{2-[5-(2-methoxycarbonylamino-3-methyl-butyryl)-5-aza-spiro[2.4]hept-6-yl]-3H-imidazol-4-yl}-9H-fluoren-2-yl)-1H-benzoimidazol-2-yl]-2-aza-bicyclo[2.2.1]heptane-2-carbonyl}-2-methyl-propyl)-carbamic acid methyl ester]
EC50 [1]: 0.032 nM
Interaction ([2]; in combination with Compound 4): Additivity (Additivity: ≤25 and >−25 nM^2%)
Antagonism Volume [2]: −7 ± 7 nM^2%
Synergy Volume [2]: 19 ± 17 nM^2%
Fold Shift in EC50 (DRM EC50/1a-H77 EC50) [3]: 327
Fold change [4]: 0.9
EC50 [4]: 0.5 nM
EC50 [5]: 0.5 nM
Cytotoxicity at Highest Concentration of Compound Combinations (% inhibition on cell growth) [6]: 5.0 ± 5.0%
CC50 at 3 days [7]: > 44400 nM
EC50 [8]: 0.5 nM
Replicon RNA log drop [9]: −1.4 log
Compound concentration able to induce replicon RNA 1-1.5 log drop in a 6 day assay ([9]; 6 days): 0.004 nM
Replicon RNA log drop [9, 34]: −1.4 log
Fold change [10]: 0.5
EC50 [10]: 2340 nM
Fold change [11]: 0.6
EC50 [11]: 0.2 nM
Fold change [12]: 0.8
EC50 [12]: 0.4 nM
Fold Shift in EC50 (DRM EC50/1a-H77 EC50) [13]: 140
Interaction (cytotoxicity) [14]: Additivity (Additivity: ≤25 and >−25 nM^2%)
Antagonism Volume (cytotoxicity) [14]: 0 ± 0 nM^2%
Synergy Volume (cytotoxicity) [14]: 8 ± 4 nM^2%
Fold Shift in EC50 (DRM EC50/1a-H77 EC50) [15]: 3029
Fold Shift in EC50 (DRM EC50/1a-H77 EC50) [16]: 73
Fold Shift in EC50 (DRM EC50/1a-H77 EC50) [17]: 997
EC50 [18]: 5160 nM
Uncured colony number [19]: 634
EC50 [20]: 0.4 nM
Antagonism Volume [21]: 0 ± 0 nM^2
Synergy Volume [21]: 34 ± 19 nM^2
EC50 [22]: 0.033 ± 0.011 nM
increase of exposure of Compound 6 by Compound 2 [23]: approximately 5 ×
CC50 [24]: > 44400 nM
Fold change [25]: 0.8
EC50 [25]: 0.4 nM
Fold Shift in EC50 (DRM EC50/1a-H77 EC50) [26]: 25
Fold Shift in EC50 (DRM EC50/1a-H77 EC50) [27]: 170
EC50 [28]: 0.5 nM

CC(C)OC(=O)[C@H](C)N[P@](=O)(OC[C@H]1O[C@@H](n2ccc(=O)[nH]c2=O)[C@](C)(F)[C@@H]1O)Oc1ccccc1 [Compound 10]
EC50 [1]: 39 nM
Fold change [4]: 16.2
EC50 [4]: 216 nM
EC50 [5]: 13.3 nM
CC50 at 3 days [7]: > 82400 nM
EC50 [8]: 21.5 nM
Fold change [10]: 2.4
EC50 [10]: 346 nM
Fold change [11]: 3.5
EC50 [11]: 117 nM
Fold change [12]: 6.1
EC50 [12]: 218 nM
Fold Shift in EC50 (DRM EC50/1a-H77 EC50) [13]: 1.1
Fold Shift in EC50 (DRM EC50/1a-H77 EC50) [15]: 0.7
Fold Shift in EC50 (DRM EC50/1a-H77 EC50) [16]: 1.0
Fold Shift in EC50 (DRM EC50/1a-H77 EC50) [17]: 1.0
EC50 [29]: 117 to 346 nM
EC50 [18]: 147 nM
EC50 [20]: 33.9 nM
Fold change [25]: 8.8
EC50 [25]: 189 nM
Fold Shift in EC50 (DRM EC50/1a-H77 EC50) [26]: 0.9
increase (shift) in EC50 for NS5A mutants [30]: no significant shift
Fold Shift in EC50 (DRM EC50/1a-H77 EC50) [27]: 0.8
EC50 [28]: 35.8 nM

CC[C@@H]1C[C@]1(NC(=O)[C@@H]1C[C@@H](Oc2cc(-c3csc(NC(C)C)n3)nc3c(Cl)c(OCCN4CCOCC4)ccc23)CN1C(=O)[C@@H](NC(=O)O[C@@H]1C[C@@H]2C[C@@H]2C1)C(C)(C)C)C(=O)O [Compound 3]
EC50 [1]: 46 nM
Antagonism Volume [2]: −3 ± 2 nM^2%
Synergy Volume [2]: 26 ± 6 nM^2%
Cytotoxicity at Highest Concentration of Compound Combinations (% inhibition on cell growth) [6]: 2.0 ± 3.5%
CC50 at 3 days [7]: > 22200 nM
Replicon RNA log drop [9]: −0.9 log
Compound concentration able to induce replicon RNA 1-1.5 log drop in a 6 day assay ([9]; 6 days): 26.25 nM
Replicon RNA log drop [9, 34]: −0.9 log
Interaction (cytotoxicity) [14]: Additivity (Additivity: ≤25 and >−25 nM^2%)
Antagonism Volume (cytotoxicity) [14]: 0 ± 0 nM^2%
Synergy Volume (cytotoxicity) [14]: 3 ± 5 nM^2%
Interaction [31]: Additive
Uncured colony number [19]: 989
Interaction ([21]; in combination with Compound 5): Additive
Antagonism Volume [21]: −2 ± 2 nM^2
Synergy Volume [21]: 19 ± 13 nM^2
EC50 [22]: 49 ± 18 nM
CC50 at 3 days [32]: > 22200 nM
Interaction ([33]; in combination with Compound 6): Strong Synergy
Antagonism Volume [33, 35]: −0.1 ± 0.2 nM^2
Synergy Volume [33, 35]: 132 nM^2 and 132 ± 44 nM^2
